We go through six compounds from publication PMC3307806 (Molecular Pharmaceutics, 2012).

In data set [1] the test system is P-gp. The following applies: verapamil-bodipy or prazosin-bodipy as probe substrate; cited from earlier work.
A short description of data set [2]: Pseudo-steady-state blood CsA and plasma Lop/dLop concentrations in rats. The following applies: 60 min; Student's t-test.
Data set [3] concerns P-gp (mdr1a/b). The following applies: 7; cited from earlier work.
The test system of data set [4] is P-gp at the human BBB. The following applies: human PET study; cited from earlier work.
Data set [5] deals with P-gp at the rat BBB (Rattus norvegicus, UniProt Q6PSM0). The following applies: absence of CsA, 60 min, n=5.
Sequence of P-gp at the rat BBB (Q6PSM0 1-1272): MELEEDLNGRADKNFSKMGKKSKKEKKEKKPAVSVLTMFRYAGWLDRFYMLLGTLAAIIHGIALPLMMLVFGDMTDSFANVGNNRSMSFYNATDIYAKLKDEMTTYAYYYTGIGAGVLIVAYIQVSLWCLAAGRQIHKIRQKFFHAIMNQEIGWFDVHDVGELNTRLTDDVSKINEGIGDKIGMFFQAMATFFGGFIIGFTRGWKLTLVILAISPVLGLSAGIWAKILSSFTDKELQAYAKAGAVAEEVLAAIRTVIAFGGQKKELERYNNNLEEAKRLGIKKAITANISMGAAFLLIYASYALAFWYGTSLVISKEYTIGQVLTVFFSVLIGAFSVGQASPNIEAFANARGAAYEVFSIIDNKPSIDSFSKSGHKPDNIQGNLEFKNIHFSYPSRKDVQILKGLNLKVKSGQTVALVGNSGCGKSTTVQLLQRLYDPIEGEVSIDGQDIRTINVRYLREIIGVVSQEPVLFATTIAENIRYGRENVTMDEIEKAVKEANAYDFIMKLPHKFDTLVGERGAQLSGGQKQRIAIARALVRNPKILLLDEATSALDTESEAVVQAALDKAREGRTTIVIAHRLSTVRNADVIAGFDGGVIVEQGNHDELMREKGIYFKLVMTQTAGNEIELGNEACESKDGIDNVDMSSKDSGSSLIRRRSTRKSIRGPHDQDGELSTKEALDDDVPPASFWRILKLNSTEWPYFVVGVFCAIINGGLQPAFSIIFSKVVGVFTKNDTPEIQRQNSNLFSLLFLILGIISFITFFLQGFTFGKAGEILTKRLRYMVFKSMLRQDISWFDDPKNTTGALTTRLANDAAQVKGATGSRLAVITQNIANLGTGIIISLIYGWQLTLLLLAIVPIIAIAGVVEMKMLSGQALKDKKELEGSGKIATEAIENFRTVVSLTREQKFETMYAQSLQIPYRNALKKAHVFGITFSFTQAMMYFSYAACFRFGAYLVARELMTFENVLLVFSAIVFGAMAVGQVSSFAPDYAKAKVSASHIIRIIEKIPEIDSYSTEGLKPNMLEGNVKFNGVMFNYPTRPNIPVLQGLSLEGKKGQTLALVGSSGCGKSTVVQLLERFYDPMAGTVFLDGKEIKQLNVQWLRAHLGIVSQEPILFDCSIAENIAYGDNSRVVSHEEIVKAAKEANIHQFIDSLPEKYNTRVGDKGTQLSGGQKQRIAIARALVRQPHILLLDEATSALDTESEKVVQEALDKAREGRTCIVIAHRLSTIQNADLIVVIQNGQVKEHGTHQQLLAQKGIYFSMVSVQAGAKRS

“Also recorded” adds a separate entry of the source.

Take `C=C[C@H]1C[N@@]2CC[C@H]1C[C@@H]2[C@@H](O)c1ccnc2ccc(OC)cc12` [quindine]: the “difference in potency (EC50) to inhibit P-gp depending on the probe substrate” value in data set [1] is on record as 20 fold.
As for `CN(C)C(=O)C(CCN1CCC(O)(c2ccc(Cl)cc2)CC1)(c1ccccc1)c1ccccc1` [Lop, Loperamide], the “effect of the presence of CsA on pseudo-steady-state plasma concentration” value in data set [2] is recorded as “did not significantly affect; also recorded: not significantly affected”.
Take `CCC(C)n1ncn(-c2ccc(N3CCN(c4ccc(OCC5COC(Cn6cncn6)(c6ccc(Cl)cc6Cl)O5)cc4)CC3)cc2)c1=O` (centres unmarked) [itraconazole]: the “difference in potency (EC50) to inhibit P-gp depending on the probe substrate” value in data set [1] is 10 fold.
`Cc1c(O)cccc1C(=O)N[C@@H](CSc1ccccc1)[C@H](O)CN1C[C@H]2CCCC[C@H]2C[C@H]1C(=O)NC(C)(C)C` [Nelfinavir]: in data set [3], the “increase in brain:blood concentration ratio in mdr1a/b(-/-) vs. wild-type mice” value was 3400%.
With `CN([11CH3])C(=O)C(CCN1CCC(O)(c2ccc(Cl)cc2)CC1)(c1ccccc1)c1ccccc1` [11C-Lop], the “share of radioactivity in the plasma” value in data set [4] is listed as 76%.
Consider `CNC(=O)C(CCN1CCC(O)(c2ccc(Cl)cc2)CC1)(c1ccccc1)c1ccccc1` [dLop, N-desmethyl Loperamide], for which, in data set [5], the “brain:plasma concentrations (ratio) corrected for vascular content” value worked out at 0.11 ± 0.04. Besides, the “brain:plasma concentrations (ratio)” value in data set [5] (not corrected for vascular content) was determined as 0.14 ± 0.04. Besides, the “effect of the presence of CsA on pseudo-steady-state plasma concentration” value in data set [2] is “did not significantly affect; also recorded: not significantly affected”.
